Active and inactive are the calls of the source. No cut-off for these calls is given here.
Assays:
[1] = system: HT-29; test: Growth inhibition of human HT29 cells by neutral red assay; format: functional, cell-based
[2] = system: T-24; test: Growth inhibition of human T24 cells by neutral red assay; format: functional, cell-based
[3] = system: MDA-MB-231; test: Growth inhibition of human MDA-MB-231 cells by neutral red assay; format: functional, cell-based
[4] = Growth inhibition of human HTB26 cells by neutral red assay; format: functional, cell-based
[5] = system: T-24; test: Effect on apoptosis in T24 cells assessed as increase in caspase 3 activation after 14 hrs relative to control by flow cytometry; format: functional, cell-based; details: Homo sapiens
[6] = system: T-24; test: Effect on apoptosis in T24 cells assessed as increase in caspase 3 activation after 24 hrs relative to control by flow cytometry; format: functional, cell-based; details: Homo sapiens
[7] = system: T-24; test: Effect on apoptosis in T24 cells assessed as increase in caspase 3 activation after 48 hrs relative to control by flow cytometry; format: functional, cell-based; details: Homo sapiens
[8] = system: HT-29; test: Effect on apoptosis in HT29 cells assessed as increase in caspase 3 activation after 14 hrs relative to control by flow cytometry; format: functional, cell-based; details: Homo sapiens
[9] = system: HT-29; test: Effect on apoptosis in HT29 cells assessed as increase in caspase 3 activation after 24 hrs relative to control by flow cytometry; format: functional, cell-based; details: Homo sapiens
[10] = system: HT-29; test: Effect on apoptosis in HT29 cells assessed as increase in caspase 3 activation after 48 hrs relative to control by flow cytometry; format: functional, cell-based; details: Homo sapiens
[11] = biological target: T1, Caspase-3 (Homo sapiens) (UniProt P42574); test: Effect on MDA-MB-231 cell lysate caspase 3 activity after 14 hrs relative to control by substrate assay; format: cell-based
T1 sequence (whole entry): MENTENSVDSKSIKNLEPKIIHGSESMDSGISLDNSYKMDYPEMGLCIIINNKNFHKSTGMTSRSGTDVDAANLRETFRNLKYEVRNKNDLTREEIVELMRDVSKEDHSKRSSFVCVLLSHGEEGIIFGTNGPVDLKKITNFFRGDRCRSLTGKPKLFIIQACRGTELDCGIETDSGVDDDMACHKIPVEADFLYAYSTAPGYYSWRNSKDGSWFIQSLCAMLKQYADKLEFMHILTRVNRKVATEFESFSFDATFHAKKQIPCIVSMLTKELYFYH

[12] = biological target: T1, Caspase-3 (Homo sapiens); test: Effect on MDA-MB-231 cell lysate caspase 3 activity after 24 hrs relative to control by substrate assay; format: cell-based
[13] = biological target: T1, Caspase-3 (Homo sapiens); test: Effect on MDA-MB-231 cell lysate caspase 3 activity after 48 hrs relative to control by substrate assay; format: cell-based
[14] = system: MDA-MB-231; test: Increase in cell death of MDA-MB-231 cells; format: functional, cell-based; details: Homo sapiens, TDE = time-dependent effect
[15] = system: T-24; test: Increase in cell death of T24 cells; format: functional, cell-based; details: Homo sapiens, TDE = time-dependent effect
[16] = system: HT-29; test: Increase in cell death of HT29 cells; format: functional, cell-based; details: Homo sapiens, TDE = time-dependent effect
[17] = Cytotoxicity against CRL8799 cells; format: cell-based; details: human
[18] = Cytotoxicity against CRL11233 cells; format: cell-based; details: human
[19] = system: HT-29; test: Cell cycle arrest in HT29 cells by accumulation at G1 phase at 8.9 uM after 8 hrs; format: functional, Homo sapiens
[20] = system: HT-29; test: Cell cycle arrest in HT29 cells by accumulation at G1 phase at 8.9 uM after 10 hrs; format: functional, Homo sapiens
[21] = system: HT-29; test: Cell cycle arrest in HT29 cells by accumulation at G1 phase at 8.9 uM after 12 hrs; format: functional, Homo sapiens
[22] = system: HT-29; test: Cell cycle arrest in HT29 cells by accumulation at S phase at 8.9 uM after 8 hrs; format: functional, Homo sapiens
[23] = system: HT-29; test: Cell cycle arrest in HT29 cells by accumulation at S phase at 8.9 uM after 10 hrs; format: functional, Homo sapiens
[24] = system: HT-29; test: Cell cycle arrest in HT29 cells by accumulation at S phase at 8.9 uM after 12 hrs; format: functional, Homo sapiens
[25] = system: HT-29; test: Cell cycle arrest in HT29 cells by accumulation at G2 phase at 8.9 uM after 8 hrs; format: functional, Homo sapiens
[26] = system: HT-29; test: Cell cycle arrest in HT29 cells by accumulation at G2 phase at 8.9 uM after 10 hrs; format: functional, Homo sapiens
[27] = system: HT-29; test: Cell cycle arrest in HT29 cells by accumulation at G2 phase at 8.9 uM after 12 hrs; format: functional, Homo sapiens
[28] = system: HT-29; test: Cell cycle arrest in HT29 cells by accumulation at subG1 phase at 8.9 uM after 8 hrs; format: functional, Homo sapiens
[29] = system: HT-29; test: Cell cycle arrest in HT29 cells by accumulation at subG1 phase at 8.9 uM after 10 hrs; format: functional, Homo sapiens
[30] = system: HT-29; test: Cell cycle arrest in HT29 cells by accumulation at subG1 phase at 8.9 uM after 12 hrs; format: functional, Homo sapiens
[31] = system: T-24; test: Cell cycle arrest in T24 cells by accumulation at G1 phase at 5 uM after 8 hrs; format: functional, Homo sapiens
[32] = system: T-24; test: Cell cycle arrest in T24 cells by accumulation at G1 phase at 5 uM after 10 hrs; format: functional, Homo sapiens
[33] = system: T-24; test: Cell cycle arrest in T24 cells by accumulation at G1 phase at 5 uM after 12 hrs; format: functional, Homo sapiens
[34] = system: T-24; test: Cell cycle arrest in T24 cells by accumulation at S phase at 5 uM after 8 hrs; format: functional, Homo sapiens
[35] = system: T-24; test: Cell cycle arrest in T24 cells by accumulation at S phase at 5 uM after 10 hrs; format: functional, Homo sapiens
[36] = system: T-24; test: Cell cycle arrest in T24 cells by accumulation at S phase at 5 uM after 12 hrs; format: functional, Homo sapiens
[37] = system: T-24; test: Cell cycle arrest in T24 cells by accumulation at G2 phase at 5 uM after 8 hrs; format: functional, Homo sapiens
[38] = system: T-24; test: Cell cycle arrest in T24 cells by accumulation at G2 phase at 5 uM after 10 hrs; format: functional, Homo sapiens
[39] = system: T-24; test: Cell cycle arrest in T24 cells by accumulation at G2 phase at 5 uM after 12 hrs; format: functional, Homo sapiens
[40] = system: T-24; test: Cell cycle arrest in T24 cells by accumulation at subG1 phase at 5 uM after 8 hrs; format: functional, Homo sapiens
[41] = system: T-24; test: Cell cycle arrest in T24 cells by accumulation at subG1 phase at 5 uM after 10 hrs; format: functional, Homo sapiens
[42] = system: T-24; test: Cell cycle arrest in T24 cells by accumulation at subG1 phase at 5 uM after 12 hrs; format: functional, Homo sapiens
[43] = system: HT-29; test: Cell cycle arrest in HT29 cells by accumulation at G1 phase after 24 hrs; format: functional, Homo sapiens
[44] = system: HT-29; test: Cell cycle arrest in HT29 cells by accumulation at S phase after 24 hrs; format: functional, Homo sapiens
[45] = system: HT-29; test: Cell cycle arrest in HT29 cells by accumulation at G2/M phase after 24 hrs at 0.89 uM; format: functional, Homo sapiens
[46] = system: HT-29; test: Cell cycle arrest in HT29 cells by accumulation at subG1 phase after 24 hrs; format: functional, Homo sapiens
[47] = system: T-24; test: Cell cycle arrest in T24 cells by accumulation at G1 phase after 24 hrs; format: functional, Homo sapiens
[48] = system: T-24; test: Cell cycle arrest in T24 cells by accumulation at S phase after 24 hrs; format: functional, Homo sapiens
[49] = system: T-24; test: Cell cycle arrest in T24 cells by accumulation at G2/M phase after 24 hrs at 0.6 uM; format: functional, Homo sapiens
[50] = system: T-24; test: Cell cycle arrest in T24 cells by accumulation at subG1 phase after 24 hrs; format: functional, Homo sapiens
[51] = system: HT-29; test: Effect on apoptosis in HT29 cells assessed as DNA fragmentation after 8 hrs; format: functional, cell-based; details: Homo sapiens
[52] = system: T-24; test: Effect on apoptosis in T24 cells assessed as DNA fragmentation after 8 hrs; format: functional, cell-based; details: Homo sapiens

CCC1(O)C(=O)OCc2c1cc1n(c2=O)Cc2cc3ccccc3nc2-1 (single isomer, unassigned) [CAMPTOTHECIN]
IC50 [1]: 14 nM
IC50 [2]: 6 nM
IC50 [3]: 291 nM

COc1ccc(CNc2nc(NCc3ccc(OC)cc3)c3cccnc3n2)cc1
IC50 [1]: 8900 nM
IC50 [2]: 5000 nM
IC50 [4]: 1500 nM
Activity [5]: Active
Activity [6]: Active
Activity [7]: Active
Activity [8]: Active
Activity [9]: Active
Activity [10]: Active
Activity [11]: inactive
Activity [12]: inactive
Activity [13]: inactive
Activity [14]: tde
Activity [15]: tde
Activity [16]: tde
Activity [17]: Non-toxic
Activity [18]: Non-toxic
Activity [19]: 35%
Activity [20]: 22%
Activity [21]: 17%
Activity [22]: 19%
Activity [23]: 17%
Activity [24]: 17%
Activity [25]: 38%
Activity [26]: 36%
Activity [27]: 33%
Activity [28]: 8%
Activity [29]: 25%
Activity [30]: 34%
Activity [31]: 36%
Activity [32]: 28%
Activity [33]: 26%
Activity [34]: 13%
Activity [35]: 13%
Activity [36]: 10%
Activity [37]: 43%
Activity [38]: 40%
Activity [39]: 36%
Activity [40]: 7%
Activity [41]: 18%
Activity [42]: 28%
Activity [43]: 30%
Activity [44]: 11%
Activity [45]: 52%
Activity [46]: 7%
Activity [47]: 42%
Activity [48]: 13%
Activity [49]: 38%
Activity [50]: 6%
Activity [51]: Active
Activity [52]: Active
